From PubChem BioAssay AID1919009 (Molecular Pharmacology Branch, DTP, NCI, 2023)
pIC50: −log10 of the molar value.

Tested on: K24384-001-R-PDC complex spheroid growth
Assay: Anticancer human tumor K24384-001-R-PDC patient-derived pancreatic adenocarcinoma cell line growth inhibition [AhR]
Conditions: for pIC50: curve of first compound; for viability, T/C: stronger effect = lower value
How it was run: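 Complex tumor spheroids co-cultured with HUVEC and human MSC stroma; AhR antagonists tested in combination with standard-of-care and investigational agents. Top concentration at or near clinical Cmax (else 10 microM), half-log dilutions; growth expressed as percent test/control.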

[1] = second compound 0.1 µM, first compound 0.0316 µM
[2] = second compound 0.1 µM, first compound 0.1 µM
[3] = second compound 0.1 µM, first compound 0.316 µM
[4] = second compound 0.1 µM, first compound 1 µM
[5] = second compound 0.316 µM, first compound 0.0316 µM
[6] = second compound 0.316 µM, first compound 0.1 µM
[7] = second compound 0.316 µM, first compound 0.316 µM
[8] = second compound 0.316 µM, first compound 1 µM
[9] = second compound 1 µM, first compound 0.0316 µM
[10] = second compound 1 µM, first compound 0.1 µM
[11] = second compound 1 µM, first compound 0.316 µM
[12] = second compound 1 µM, first compound 1 µM
[13] = second compound 3.16 µM, first compound 0.0316 µM
[14] = second compound 3.16 µM, first compound 0.1 µM
[15] = second compound 3.16 µM, first compound 0.316 µM
[16] = second compound 3.16 µM, first compound 1 µM
[17] = second compound 10 µM, first compound 0.0316 µM
[18] = second compound 10 µM, first compound 0.1 µM
[19] = second compound 10 µM, first compound 0.316 µM
[20] = second compound 10 µM, first compound 1 µM
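For viability, T/C in this document: percent of DMSO vehicle-treated spheroid viability set as 100%.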

CC(C)c1c(-c2ccccc2)nc2c(C#N)c[nH]n2c1=O + CC(CO)NC(=O)c1cc(-c2ccc(Cl)cc2)nn(-c2cnn(C)c2)c1=O
pIC50 (second compound 0.1 µM): < 5.00 | pIC50 (second compound 0.316 µM): < 5.00 | pIC50 (second compound 1 µM): < 5.00 | pIC50 (second compound 3.16 µM): < 5.00 | pIC50 (second compound 10 µM): < 5.00 | viability, T/C [1]: 118% | viability, T/C [2]: 122% | viability, T/C [3]: 76.2% | viability, T/C [4]: 99.7% | viability, T/C (second compound 0.1 µM, first compound 3.16 µM): 92.2% | viability, T/C (second compound 0.1 µM, first compound 10 µM): 80.8% | viability, T/C [5]: 116% | viability, T/C [6]: 107% | viability, T/C [7]: 89.4% | viability, T/C [8]: 96.8% | viability, T/C (second compound 0.316 µM, first compound 3.16 µM): 73% | viability, T/C (second compound 0.316 µM, first compound 10 µM): 78.3% | viability, T/C [9]: 92.7% | viability, T/C [10]: 80% | viability, T/C [11]: 94.2% | viability, T/C [12]: 64.7% | viability, T/C (second compound 1 µM, first compound 3.16 µM): 72.1% | viability, T/C (second compound 1 µM, first compound 10 µM): 72.8% | viability, T/C [13]: 63.2% | viability, T/C [14]: 75.1% | viability, T/C [15]: 79.8% | viability, T/C [16]: 64% | viability, T/C (second compound 3.16 µM, first compound 3.16 µM): 68.7% | viability, T/C (second compound 3.16 µM, first compound 10 µM): 63.5% | viability, T/C [17]: 77.5% | viability, T/C [18]: 74.4% | viability, T/C [19]: 62.5% | viability, T/C [20]: 60.6% | viability, T/C (second compound 10 µM, first compound 3.16 µM): 52.3% | viability, T/C (second compound 10 µM, first compound 10 µM): 61.6%

CC1COCCN1c1cc(-c2ccnn2C)c2ccnc(-c3ccn[nH]3)c2n1 (stereo not given) + CC(CO)NC(=O)c1cc(-c2ccc(Cl)cc2)nn(-c2cnn(C)c2)c1=O
pIC50 (second compound 0.1 µM): 6.94 | pIC50 (second compound 0.316 µM): 7.04 | pIC50 (second compound 1 µM): 7.02 | pIC50 (second compound 3.16 µM): 7.26 | pIC50 (second compound 10 µM): 7.28 | viability, T/C (second compound 0.1 µM, first compound 0.00316 µM): 105% | viability, T/C (second compound 0.1 µM, first compound 0.01 µM): 93.7% | viability, T/C [1]: 80.8% | viability, T/C [2]: 51.7% | viability, T/C [3]: 33% | viability, T/C [4]: 26.4% | viability, T/C (second compound 0.316 µM, first compound 0.00316 µM): 111% | viability, T/C (second compound 0.316 µM, first compound 0.01 µM): 118% | viability, T/C [5]: 75.5% | viability, T/C [6]: 50.9% | viability, T/C [7]: 32.3% | viability, T/C [8]: 24.3% | viability, T/C (second compound 1 µM, first compound 0.00316 µM): 94% | viability, T/C (second compound 1 µM, first compound 0.01 µM): 121% | viability, T/C [9]: 86.4% | viability, T/C [10]: 49% | viability, T/C [11]: 28% | viability, T/C [12]: 21.3% | viability, T/C (second compound 3.16 µM, first compound 0.00316 µM): 73.1% | viability, T/C (second compound 3.16 µM, first compound 0.01 µM): 74.8% | viability, T/C [13]: 64.2% | viability, T/C [14]: 34.2% | viability, T/C [15]: 23.7% | viability, T/C [16]: 25.2% | viability, T/C (second compound 10 µM, first compound 0.00316 µM): 85.8% | viability, T/C (second compound 10 µM, first compound 0.01 µM): 79.2% | viability, T/C [17]: 60.1% | viability, T/C [18]: 37.7% | viability, T/C [19]: 27.2% | viability, T/C [20]: 28.4%
